The NIST ThermoML archive (doi:10.1016/j.jct.2014.01.007)
± gives the expanded uncertainty stated by the source.

Tests used:
[1] = for mass density: 101.33 kPa; for Triple point temperature: DTA
[2] = Molar enthalpy of transition or fusion; details: DSC
[3] = molar enthalpy of vaporization or sublimation; details: 298.15 K; Liquid; Static calorimetry

Row | mass density ([1]; 167 K, Crystal 2, X-ray diffraction) [kg/m3] | mass density ([1]; 251 K, Crystal 1, X-ray diffraction) [kg/m3] | Triple point temperature ([1]; Crystal 1) [K] | Triple point temperature ([1]; Crystal 2) [K] | Molar enthalpy of transition or fusion ([2]; Crystal 1) [kcal/mol] | Molar enthalpy of transition or fusion ([2]; Crystal 2) [kcal/mol] | mass density ([1]; 288.15 K, Liquid, Vibrating tube method) [kg/m3] | mass density ([1]; 293.15 K, Liquid, Vibrating tube method) [kg/m3] | mass density ([1]; 298.14 K, Liquid, Vibrating tube method) [kg/m3] | mass density ([1]; 303.15 K, Liquid, Vibrating tube method) [kg/m3] | mass density ([1]; 308.15 K, Liquid, Vibrating tube method) [kg/m3] | molar enthalpy [3] [kcal/mol] | SMILES
1 | 1295 ± 7 | 1284 ± 7 | 365.9 ± 0.5 | 221.4 ± 1.7 | 4.74 ± 0.122 | 0.159 ± 0.0335 |  |  |  |  |  |  | CN(C)C(N)=[N+](C)C.O=[N+]([O-])[O-] [tetramethylguanidinium nitrate]
2 |  |  |  |  |  |  | 921.517 ± 0.12 | 917.012 ± 0.12 | 912.5 ± 0.12 | 907.982 ± 0.12 | 903.458 ± 0.12 | 11.9 ± 0.359 | CN(C)C(=N)N(C)C [1,1,3,3-tetramethylguanidine]
